The source of these data is patent US20260092071A1, “COMPOUNDS AND COMPOSITIONS AS SMARCA2/4 DEGRADERS AND USES THEREOF” (REGENTS OF THE UNIVERSITY OF MICHIGAN, priority 2022, published 2026).

In experiment [1] the target is SMARCA4 (Homo sapiens, UniProt P51532). As to the kind of experiment: HiBiT assay for protein degradation, Hela SMARCA4-HiBiT cells (A series). The class given is cell-based. Particulars: for DC50: read-out: SMARC A4 Hela HiBit DC50. Also on record: fuse HiBiT to the carboxy terminus of SMARCA2 (Promega CS302365) or SMARCA4 (Promega CS3023225); host or cells: HeLa (CRISPR/Cas9 HiBiT knock-in). How it is done: Hela cells were genetically modified via CRISPR/Cas9 to fuse HiBiT to the carboxy terminus of SMARCA2 (Promega CS302365) or SMARCA4 (Promega CS3023225). Cells were cultured in DMEM containing 10% FBS and 1% (Vol:Vol) penicillin-streptomycin. […] At the end of experiment, levels of SMARCA2 or SMARCA4 expression were assessed with Nano-Glo® HiBiT Lytic Detection Assay (Promega N3050). IC50 was obtained using the GraphPad Prism data analysis software.
Sequence of SMARCA4 (P51532 whole entry): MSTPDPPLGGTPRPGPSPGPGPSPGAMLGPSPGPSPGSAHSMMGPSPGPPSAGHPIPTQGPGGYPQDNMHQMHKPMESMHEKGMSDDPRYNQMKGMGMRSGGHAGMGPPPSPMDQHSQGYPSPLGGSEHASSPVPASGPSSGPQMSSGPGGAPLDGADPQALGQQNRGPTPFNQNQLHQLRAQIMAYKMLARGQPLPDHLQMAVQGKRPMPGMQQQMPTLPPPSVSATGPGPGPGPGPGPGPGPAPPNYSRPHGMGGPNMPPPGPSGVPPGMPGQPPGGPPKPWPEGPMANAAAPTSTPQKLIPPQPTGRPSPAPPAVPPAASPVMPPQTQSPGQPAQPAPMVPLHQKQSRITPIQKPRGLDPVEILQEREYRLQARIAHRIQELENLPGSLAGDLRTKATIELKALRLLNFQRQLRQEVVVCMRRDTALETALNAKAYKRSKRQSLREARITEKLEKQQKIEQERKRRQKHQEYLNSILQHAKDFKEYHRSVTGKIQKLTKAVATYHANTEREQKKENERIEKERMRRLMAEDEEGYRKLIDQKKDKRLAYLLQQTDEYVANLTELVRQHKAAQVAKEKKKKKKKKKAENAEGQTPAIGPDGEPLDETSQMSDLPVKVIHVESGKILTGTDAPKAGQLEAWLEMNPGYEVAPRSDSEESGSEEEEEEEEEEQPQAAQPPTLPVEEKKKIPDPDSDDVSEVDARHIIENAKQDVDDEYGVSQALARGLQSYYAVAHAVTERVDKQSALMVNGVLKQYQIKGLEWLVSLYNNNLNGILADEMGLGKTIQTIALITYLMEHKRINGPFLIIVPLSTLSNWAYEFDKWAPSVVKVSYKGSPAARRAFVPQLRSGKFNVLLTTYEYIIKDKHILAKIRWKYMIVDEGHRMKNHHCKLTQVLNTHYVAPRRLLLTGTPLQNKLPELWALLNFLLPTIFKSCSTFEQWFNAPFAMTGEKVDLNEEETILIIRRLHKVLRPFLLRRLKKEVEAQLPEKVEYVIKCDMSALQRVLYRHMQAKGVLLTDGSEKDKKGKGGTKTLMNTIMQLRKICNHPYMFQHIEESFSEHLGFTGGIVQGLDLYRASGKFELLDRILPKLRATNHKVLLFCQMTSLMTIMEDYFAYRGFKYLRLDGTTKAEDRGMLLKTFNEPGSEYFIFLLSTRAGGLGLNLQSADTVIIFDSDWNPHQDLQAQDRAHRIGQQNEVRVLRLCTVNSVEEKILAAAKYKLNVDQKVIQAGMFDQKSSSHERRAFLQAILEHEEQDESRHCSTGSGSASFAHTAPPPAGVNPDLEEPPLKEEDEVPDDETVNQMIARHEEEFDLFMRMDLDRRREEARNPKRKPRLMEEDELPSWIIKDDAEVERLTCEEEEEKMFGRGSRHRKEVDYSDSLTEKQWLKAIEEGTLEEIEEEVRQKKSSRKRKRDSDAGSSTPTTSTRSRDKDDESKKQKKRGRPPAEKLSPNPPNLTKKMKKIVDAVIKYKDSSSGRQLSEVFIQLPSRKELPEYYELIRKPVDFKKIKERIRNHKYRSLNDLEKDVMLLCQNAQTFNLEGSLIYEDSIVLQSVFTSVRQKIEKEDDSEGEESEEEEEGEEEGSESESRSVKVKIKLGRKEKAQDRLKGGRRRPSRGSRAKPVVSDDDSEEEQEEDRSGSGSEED

The target of experiment [2] is SMARCA2 (Homo sapiens, UniProt P51531). The experiment can be described thus: HiBiT assay for protein degradation, Hela SMARCA2-HiBiT cells (A series). The class given is cell-based. More on the design: Hela cells were genetically modified via CRISPR/Cas9 to fuse HiBiT to the carboxy terminus of SMARCA2; host or cells: HeLa (CRISPR/Cas9 HiBiT knock-in). Put shortly:
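HeLa cells engineered by CRISPR/Cas9 to carry a HiBiT tag fused to the C-terminus of SMARCA2 (Promega CS302365) were grown in DMEM supplemented with FBS and penicillin-streptomycin. After treatment, remaining SMARCA2 protein was quantified with the Nano-Glo® HiBiT Lytic Detection Assay (Promega N3050), and curves were fitted in GraphPad Prism.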

Where [3] appears, read: HeLa, read-out: SMARC A4 Hela HiBit Dmax(%).
Where [4] appears, read: Hela SMARCA4-HiBiT cells, 24 hours treatment.
Setting [5] is: HeLa, read-out: SMARC A2 Hela HiBit Dmax (%).
[6] abbreviates: Hela SMARCA2-HiBiT cells, 24 hours treatment; read-out: SMARC A2 Hela HiBit DC50.
The mark [7] stands for this setting: read-out: SMARC A2 Hela HiBit DC50.
The mark [8] stands for this setting: Hela SMARCA4-HiBiT cells, 24 hours treatment, read-out: SMARC A4 Hela HiBit Dmax(%).
The mark [9] stands for this setting: Hela SMARCA4-HiBiT cells, 24 hours treatment, read-out: SMARC A4 Hela HiBit Dmax.
Setting [10] is: Hela SMARCA2-HiBiT cells, 24 hours treatment; read-out: SMARC A2 Hela HiBit Dmax (%).

Where two headings read alike, the source gives them in different places.

Sequence of SMARCA2 (P51531 whole entry, the tested form may be a part): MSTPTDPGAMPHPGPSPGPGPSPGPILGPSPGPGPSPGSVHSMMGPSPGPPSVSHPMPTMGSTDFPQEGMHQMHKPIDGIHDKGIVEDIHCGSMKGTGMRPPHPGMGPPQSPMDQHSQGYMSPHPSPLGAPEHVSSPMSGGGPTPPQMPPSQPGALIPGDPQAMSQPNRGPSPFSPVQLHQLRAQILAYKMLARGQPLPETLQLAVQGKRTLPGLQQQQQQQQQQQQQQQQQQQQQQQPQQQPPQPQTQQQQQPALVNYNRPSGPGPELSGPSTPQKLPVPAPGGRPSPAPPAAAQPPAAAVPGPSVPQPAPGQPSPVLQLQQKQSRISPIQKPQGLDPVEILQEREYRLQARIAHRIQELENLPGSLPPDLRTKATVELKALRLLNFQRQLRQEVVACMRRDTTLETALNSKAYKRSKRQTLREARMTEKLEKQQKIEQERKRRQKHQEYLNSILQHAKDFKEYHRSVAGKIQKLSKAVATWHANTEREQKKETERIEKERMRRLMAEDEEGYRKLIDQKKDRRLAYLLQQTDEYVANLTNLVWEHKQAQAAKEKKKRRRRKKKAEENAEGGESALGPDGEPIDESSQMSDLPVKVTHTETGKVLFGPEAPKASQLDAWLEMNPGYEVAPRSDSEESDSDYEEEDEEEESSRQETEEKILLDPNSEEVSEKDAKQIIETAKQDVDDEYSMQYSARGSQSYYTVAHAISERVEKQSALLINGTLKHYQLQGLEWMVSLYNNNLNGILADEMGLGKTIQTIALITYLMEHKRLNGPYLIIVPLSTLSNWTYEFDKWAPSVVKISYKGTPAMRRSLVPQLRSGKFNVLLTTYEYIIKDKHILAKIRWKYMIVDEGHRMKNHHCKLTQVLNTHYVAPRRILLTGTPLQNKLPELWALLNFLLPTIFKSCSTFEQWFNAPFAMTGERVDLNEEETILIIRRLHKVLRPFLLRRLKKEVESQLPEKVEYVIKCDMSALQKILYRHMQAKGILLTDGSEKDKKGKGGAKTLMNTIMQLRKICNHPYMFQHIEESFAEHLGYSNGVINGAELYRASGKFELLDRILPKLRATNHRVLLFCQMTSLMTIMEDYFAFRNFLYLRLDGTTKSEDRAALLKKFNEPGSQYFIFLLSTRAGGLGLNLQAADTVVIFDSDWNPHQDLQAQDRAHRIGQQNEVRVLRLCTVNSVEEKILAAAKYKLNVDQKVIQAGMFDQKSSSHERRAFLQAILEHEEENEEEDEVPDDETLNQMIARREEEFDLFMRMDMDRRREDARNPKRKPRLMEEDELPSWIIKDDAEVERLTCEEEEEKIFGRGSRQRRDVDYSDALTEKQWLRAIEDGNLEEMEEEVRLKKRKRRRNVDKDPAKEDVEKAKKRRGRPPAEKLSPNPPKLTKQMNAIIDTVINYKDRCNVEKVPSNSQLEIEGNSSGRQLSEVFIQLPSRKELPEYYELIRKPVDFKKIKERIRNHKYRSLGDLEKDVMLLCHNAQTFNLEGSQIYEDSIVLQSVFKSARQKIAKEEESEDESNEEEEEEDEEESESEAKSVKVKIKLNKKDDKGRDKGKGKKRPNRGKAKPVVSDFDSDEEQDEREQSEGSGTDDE

On to `Cc1ncsc1-c1ccc([C@H](CCCCCN2CCC(c3ccc4c(c3)C3(CCCCC3)c3nc(=O)c5c(Br)cccc5n3-4)CC2)NC(=O)[C@@H]2C[C@@H](O)CN2C(=O)[C@@H](NC(=O)C2(F)CC2)C(C)(C)C)cc1` [Compound A4, (2S,4R)—N—((S)-6-(4-(4′-bromo-5′-oxo-5′H-spiro[cyclohexane-1,7′-indolo[1,2-a]quinazolin]-9′-yl)piperidin-1-yl)-1-(4-(4-methylthiazol-5-yl)phenyl)hexyl)-1-((S)-2-(1-fluorocyclopropane-1-carboxamido)-3,3-dimethylbutanoyl)-4-hydroxypyrrolidine-2-carboxamide], for which the Dmax in experiment [1] (setting [3]) and in experiment [2] (setting [5]) was above 90% in each case. For the same compound, the DC50 in experiment [1] (setting [4]) and in experiment [2] (setting [6]) was below 100 nM in each case.
Regarding `Cc1ncsc1-c1ccc([C@H](C)NC(=O)[C@@H]2C[C@@H](O)CN2C(=O)[C@@H](n2cc(CCCCN3CCC(c4ccc5c(c4)-n4c(nc(=O)c6c(Br)cccc64)C54CCCCC4)CC3)nn2)C(C)(C)C)cc1` [Compound A45, (2S,4R)-1-((S)-2-(4-(4-(4-(4′-bromo-5′-oxo-5′H-spiro[cyclohexane-1,7′-indolo[1,2-a]quinazolin]-10′-yl)piperidin-1-yl)butyl)-1H-1,2,3-triazol-1-yl)-3,3-dimethylbutanoyl)-4-hydroxy-N—((S)-1-(4-(4-methylthiazol-5-yl)phenyl)ethyl)pyrrolidine-2-carboxamide], the “SMARC A4 Hela HiBit Dmax(%)” value in experiment [1] (setting [4]) is listed as “B (B (70-90% degradation))”. Moreover, the DC50 in experiment [1] and in experiment [2] (setting [7]) was below 100 nM in each case. In experiment [2] (Hela SMARCA2-HiBiT cells, 24 hours treatment), the “SMARC A2 Hela HiBit Dmax (%)” value was “A (A (>90% degradation))”.
For the compound `Cc1ncsc1-c1ccc([C@H](C)NC(=O)[C@@H]2C[C@@H](O)CN2C(=O)[C@@H](NC(=O)C23CCC(CN4CCC(c5ccc6c(c5)C5(CCCCC5)c5nc(=O)c7c(Br)cccc7n5-6)CC4)(CC2)CC3)C(C)(C)C)cc1` [Compound A27, (2S,4R)-1-((S)-2-(4-((4-(4′-bromo-5′-oxo-5′H-spiro[cyclohexane-1,7′-indolo[1,2-a]quinazolin]-9′-yl)piperidin-1-yl)methyl)bicyclo[2.2.2]octane-1-carboxamido)-3,3-dimethylbutanoyl)-4-hydroxy-N—((S)-1-(4-(4-methylthiazol-5-yl)phenyl)ethyl)pyrrolidine-2-carboxamide], the Dmax fell in the range of 50 to 69% in experiment [1] (setting [8]) and 70 to 90% in experiment [2] (setting [5]). The DC50 in experiment [1] is 501 to 1000 nM; in experiment [2] (setting [7]), below 100 nM.
On to `Cc1ncsc1-c1ccc([C@@H](NC(=O)[C@@H]2C[C@@H](O)CN2C(=O)[C@@H](n2cc(C3CC3)nn2)C(C)(C)C)C(=O)N2CCC(c3ccc4c(c3)-n3c(nc(=O)c5c(Br)cccc53)C43CCCCC3)CC2)cc1` [Compound A135, (2S,4R)—N—((R)-2-(4-(4′-bromo-5′-oxo-5′H-spiro[cyclohexane-1,7′-indolo[1,2-a]quinazolin]-10′-yl)piperidin-1-yl)-1-(4-(4-methylthiazol-5-yl)phenyl)-2-oxoethyl)-1-((S)-2-(4-cyclopropyl-1H-1,2,3-triazol-1-yl)-3,3-dimethylbutanoyl)-4-hydroxypyrrolidine-2-carboxamide], for which the DC50 in experiment [1] (setting [4]) and in experiment [2] (setting [6]) was below 10 nM in each case. Moreover, the Dmax in experiment [1] (setting [9]) and in experiment [2] (setting [10]) was above 90% each time.
As to `Cc1ncsc1-c1ccc([C@H](C)NC(=O)[C@@H]2C[C@@H](O)CN2C(=O)[C@H](C2CCN(C(=O)CCCCN3CCC(c4ccc5c(c4)-n4c(nc(=O)c6c(Cl)cccc64)C54CCCCC4)CC3)CC2)n2cc(C3CC3)nn2)cc1` [Compound A107, (2S,4R)-1-((S)-2-(1-(5-(4-(4′-chloro-5′-oxo-5′H-spiro[cyclohexane-1,7′-indolo[1,2-a]quinazolin]-10′-yl)piperidin-1-yl)pentanoyl)piperidin-4-yl)-2-(4-cyclopropyl-1H-1,2,3-triazol-1-yl)acetyl)-4-hydroxy-N—((S)-1-(4-(4-methylthiazol-5-yl)phenyl)ethyl)pyrrolidine-2-carboxamide], the DC50 is above 1000 nM in experiment [1] (setting [4]) and 100 to 1000 nM in experiment [2] (setting [6]). The Dmax in experiment [1] (setting [9]) was below 50%; in experiment [2] (setting [10]), 70 to 90%.
For `Cc1ncsc1-c1ccc([C@H](C)NC(=O)[C@@H]2C[C@@H](O)CN2C(=O)[C@@H](n2cc([C@H]3CC[C@H](CN4CCC(c5cnc6c(c5)-n5c(nc(=O)c7c(Br)cccc75)C65CCCCC5)CC4)CC3)nn2)C(C)(C)C)cc1` [Compound A76, (2S,4R)-1-((S)-2-(4-((1r,4S)-4-((4-(4′-bromo-5′-oxo-5′H-spiro[cyclohexane-1,7′-pyrido[2′,3′: 4,5]pyrrolo[1,2-a]quinazolin]-10′-yl)piperidin-1-yl)methyl)cyclohexyl)-1H-1,2,3-triazol-1-yl)-3,3-dimethylbutanoyl)-4-hydroxy-N—((S)-1-(4-(4-methylthiazol-5-yl)phenyl)ethyl)pyrrolidine-2-carboxamide] the same measures were above 1000 nM, below 10 nM, below 50% and above 90%.
Turning to `Cc1ncsc1-c1ccc([C@H](CN2CCOCC2)NC(=O)[C@@H]2C[C@@H](O)CN2C(=O)[C@H](C2CCCCC2)n2cc([C@H]3CC[C@H](CN4CCC[C@H](c5ccc6c(c5)-n5c(nc(=O)c7c(Cl)cccc75)C65CCCCC5)C4)CC3)nn2)cc1` [Compound A131, (2S,4R)-1-((2S)-2-(4-((1r,4S)-4-((3-(4′-chloro-5′-oxo-5′H-spiro[cyclohexane-1,7′-indolo[1,2-a]quinazolin]-10′-yl)piperidin-1-yl)methyl)cyclohexyl)-1H-1,2,3-triazol-1-yl)-2-cyclohexylacetyl)-4-hydroxy-N—((R)-1-(4-(4-methylthiazol-5-yl)phenyl)-2-morpholinoethyl)pyrrolidine-2-carboxamide], the figures for the DC50 in experiment [1] (setting [4]) and in experiment [2] (setting [6]) were above 1000 nM and 10 to 100 nM, respectively. The figures for the Dmax in experiment [1] (setting [9]) and in experiment [2] (setting [10]) were below 50% and 70 to 90%, respectively.
For `Cc1ncsc1-c1ccc([C@H](C)NC(=O)[C@@H]2C[C@@H](O)CN2C(=O)[C@@H](NC(=O)[C@H]2CC[C@H](CN3CCC(c4ccc5c(n4)-n4c(nc(=O)c6c(Br)cccc64)C54CCCCC4)CC3)CC2)C(C)(C)C)cc1` [Compound A51, (2S,4R)-1-((S)-2-((1r,4S)-4-((4-(4′-bromo-5′-oxo-5′H-spiro[cyclohexane-1,7′-pyrido[3′,2′: 4,5]pyrrolo[1,2-a]quinazolin]-10′-yl)piperidin-1-yl)methyl)cyclohexane-1-carboxamido)-3,3-dimethylbutanoyl)-4-hydroxy-N—((S)-1-(4-(4-methylthiazol-5-yl)phenyl)ethyl)pyrrolidine-2-carboxamide], the Dmax in experiment [1] (setting [3]) was below 50%; in experiment [2] (setting [5]), 50 to 69%. For the same compound, in experiment [1] (setting [4]), the “SMARC A4 Hela HiBit DC50(nM)” value is “No Fit”. Further, the 50% degradation concentration (DC50) in experiment [2] (read-out: SMARC A2 Hela HiBit DC50; Hela SMARCA2-HiBiT cells, 24 hours treatment) lay in the range of 501 to 1000 nM.
Consider `C[C@H](NC(=O)[C@@H]1C[C@@H](O)CN1C(=O)[C@@H](n1cc([C@H]2CC[C@H](CN3CCC(c4ccc5c(c4)-n4c(nc(=O)c6c(Br)cccc64)C54CCCCC4)CC3)CC2)nn1)C(C)(C)C)c1ccc(Cl)cc1` [Compound A68, (2S,4R)-1-((S)-2-(4-((1r,4S)-4-((4-(4′-bromo-5′-oxo-5′H-spiro[cyclohexane-1,7′-indolo[1,2-a]quinazolin]-10′-yl)piperidin-1-yl)methyl)cyclohexyl)-1H-1,2,3-triazol-1-yl)-3,3-dimethylbutanoyl)-N—((S)-1-(4-chlorophenyl)ethyl)-4-hydroxypyrrolidine-2-carboxamide], for which the figures for the half-maximal degradation concentration (DC50) in experiment [1] (setting [4]) and in experiment [2] (setting [6]) were above 1000 nM and below 100 nM, respectively. Further, the Dmax in experiment [2] (setting [5]) is above 90%.
Consider `Cc1ncsc1-c1ccc([C@H](C)NC(=O)[C@@H]2C[C@@H](O)CN2C(=O)[C@@H](n2cc(CCN3CCC(c4ccc5c(c4)C4(CCCCC4)c4nc(=O)c6c(Br)cccc6n4-5)CC3)nn2)C(C)(C)C)cc1` [Compound A54, (2S,4R)-1-((S)-2-(4-(2-(4-(4′-bromo-5′-oxo-5′H-spiro[cyclohexane-1,7′-indolo[1,2-a]quinazolin]-9′-yl)piperidin-1-yl)ethyl)-1H-1,2,3-triazol-1-yl)-3,3-dimethylbutanoyl)-4-hydroxy-N—((S)-1-(4-(4-methylthiazol-5-yl)phenyl)ethyl)pyrrolidine-2-carboxamide], for which the DC50 in experiment [1] (setting [4]) and in experiment [2] (setting [6]) was below 100 nM in each case. Further, the Dmax in experiment [1] (setting [8]) and in experiment [2] (setting [10]) was above 90% throughout.
